# Assay results published in US20260110682A1, “COMPOSITIONS AND METHODS TARGETING SWIP-10 AND MBLAC1 FOR THE THERAPEUTIC MODULATION OF COPPER DYSHOMEOSTASIS” (Florida Atlantic University Board of Trustees, priority 2022, published 2026).
# Columns and labels:
# [1] = test system: DA neurons; assay: DA neuron degeneration in worms with GFP-labeled DA neurons (BY250), scored by fluorescence/confocal imaging; assay type: in vivo, C. elegans; settings: for rescue of DA neuron degeneration of swip-10: BY250
# Method: FIG. 6A: WT transgenic worms with GFP-labeled DA neurons (BY250) were raised on agar plates containing vehicle or 10 μM of the Cu+ specific chelator BCS and imaged by fluorescence microscopy at the late L4 stage to quantify DA neuron degeneration. Data derived from 4 experiments for each condition with statistical evaluation by a one-tailed Student's t-test. […] CuCl2 is known to generate Cu+ upon uptake into cells, thus elevating intracellular Cu+ levels. […] Sustained alterations in mitochondrial function and increased oxidative stress are expected to place neurons at risk for death due to their high metabolic rate. […] Assays were performed blind to genotype and treatment, and degeneration assessed by scoring the frequency of dendritic breaks, shrunken soma and missing neurons as described by Gibson et al, 2018. Extending work examining degeneration in BY250: swip-10 vs BY250, a potential Cu-sensitive regulation of swip-10 degeneration was assessed using growth of BY250 animals on the Cu+ specific chelator, BCS, to promote degeneration, and incubation of BY250: swip-10 on CuCl2 and elesclomol to prevent swip-10 degeneration.
# [2] = test system: chca-1; assay: qPCR of chca-1 RNA levels in worms; assay type: in vivo, C. elegans; settings: N2 worms treated with BCS; similar extent as in swip-10 animals
# [3] = test system: mitochondrial respiration; settings: swip-10 KO worms treated with FCCP
# Excerpt: Data here are presented as mean oxygen consumption (pmol/second) of 100 worms. ** represents statistical significance (P<0.01) compared to the N2 strain by a two-tailed (unpaired) t-test.
# [4] = test system: GLT1 type glutamate transporter; settings: rodents treated with ceftriaxone; cited from earlier work
# [5] = test system: animal models of AD and other neurodegenerative disorders; settings: stroke, oxygen glucose deprivation induced neurodegeneration, motor neuron degeneration; cited from earlier work
# [6] = target: T1, MBLAC1 (Homo sapiens, UniProt A4D2B0); settings: cited from earlier work
# T1 sequence (A4D2B0 1-266): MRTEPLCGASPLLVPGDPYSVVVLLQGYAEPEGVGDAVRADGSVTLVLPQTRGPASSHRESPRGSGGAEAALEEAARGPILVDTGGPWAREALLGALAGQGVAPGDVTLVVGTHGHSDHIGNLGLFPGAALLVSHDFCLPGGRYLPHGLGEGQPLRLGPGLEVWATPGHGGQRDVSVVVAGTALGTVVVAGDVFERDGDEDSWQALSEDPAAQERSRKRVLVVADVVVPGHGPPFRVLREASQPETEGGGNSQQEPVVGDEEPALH
# [7] = test system: Menkes disease; settings: boosting Cu levels; cited from earlier work
smiles,measurement,setting,value
"Cc1cc(-c2ccc(S(=O)(=O)O)cc2)c2ccc3c(-c4ccc(S(=O)(=O)O)cc4)cc(C)nc3c2n1 [BCS, bathocuproinedisulfonic acid]",DA neuron degeneration,"[1]; WT (BY250) worms raised on agar plates containing 10 μM BCS, imaged at late L4 stage",DA neuron degeneration generated
same,chca-1 RNA levels,[2],elevated
[Cl][Cu][Cl] [CuCl2],rescue of DA neuron degeneration of swip-10,[1]; swip-10 animals incubated with CuCl2 (10 μM),rescued
N#CC(C#N)=NNc1ccc(OC(F)(F)F)cc1 [FCCP],oxygen consumption,[3],restores oxygen consumption
CO/N=C(\C(=O)N[C@@H]1C(=O)N2C(C(=O)O)=C(CSc3nc(=O)c(=O)[nH]n3C)CS[C@H]12)c1csc(N)n1 [ceftriaxone],GLT1 type glutamate transporter level,[4],triggers an elevation
same,neuroprotection,[5],demonstrates neuroprotection
same,binding to MBLAC1,[6],binds MBLAC1
CN(NC(=O)CC(=O)NN(C)C(=S)c1ccccc1)C(=S)c1ccccc1 [elesclomol],pathology associated with Menkes disease,[7],reduce pathology
same,rescue of DA neuron degeneration of swip-10,[1]; swip-10 animals incubated with elesclomol (5 μM),rescued
